Values of other authors in patent US20190343121A1, “Cinmethylin Microcapsules with a Shell Made of Tetramethylxylylene Diisocyanate and a Polyamine with at Least Three Amine Groups” (BASF Agro B.V., priority 2016, published 2019).

Settings: at 20° C.

Substance: (±)-2-exo-(2-methylbenzyloxy)-1-methyl-4-isopropyl-7-oxabicyclo[2.2.1]heptane [Cinmethylin]
- solubility in water: 63 µg/mL
